# Where two headings read alike, the source gives them in different places.
# Columns and labels:
# HMG CoA reductase = biological target: T1, HMG CoA reductase (Homo sapiens, UniProt P04035); test: Ubiquitination of reductase in a permeabilized cell system; format: cell-based; conditions: permeabilized cells; data not shown
# T1 sequence (P04035 1-888): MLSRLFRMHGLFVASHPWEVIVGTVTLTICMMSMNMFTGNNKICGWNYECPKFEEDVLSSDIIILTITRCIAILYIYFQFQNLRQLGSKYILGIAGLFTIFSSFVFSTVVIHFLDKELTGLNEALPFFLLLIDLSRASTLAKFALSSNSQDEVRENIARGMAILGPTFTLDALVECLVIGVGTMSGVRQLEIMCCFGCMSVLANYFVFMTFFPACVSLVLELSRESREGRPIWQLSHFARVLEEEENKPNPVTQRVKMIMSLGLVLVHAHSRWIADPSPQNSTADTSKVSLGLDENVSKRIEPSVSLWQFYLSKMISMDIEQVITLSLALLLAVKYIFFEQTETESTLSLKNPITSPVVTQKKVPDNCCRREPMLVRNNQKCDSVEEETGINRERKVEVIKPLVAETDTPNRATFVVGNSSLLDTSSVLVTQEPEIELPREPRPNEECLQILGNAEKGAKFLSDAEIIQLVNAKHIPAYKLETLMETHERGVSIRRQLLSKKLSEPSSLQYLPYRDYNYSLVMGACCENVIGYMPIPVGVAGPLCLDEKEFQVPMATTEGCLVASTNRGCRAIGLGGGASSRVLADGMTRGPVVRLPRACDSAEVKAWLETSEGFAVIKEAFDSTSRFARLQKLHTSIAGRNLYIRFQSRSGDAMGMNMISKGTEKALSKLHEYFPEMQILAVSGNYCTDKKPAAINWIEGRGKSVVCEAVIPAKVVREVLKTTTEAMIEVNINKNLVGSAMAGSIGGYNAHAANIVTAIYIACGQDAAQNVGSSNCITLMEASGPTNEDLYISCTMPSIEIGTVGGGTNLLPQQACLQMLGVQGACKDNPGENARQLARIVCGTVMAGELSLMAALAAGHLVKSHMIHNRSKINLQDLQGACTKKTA
# Protocol: It was determined whether intermediates in cholesterol synthesis promote ubiquitination of reductase in a permeabilized cell system. […] The methyl and side chain hydroxyl groups of 27-hydroxylanosterol appear to act synergistically in promoting reductase ubiquitination.
# [1] = biological target: T2, Recombinant human P450 27A1 (Homo sapiens, UniProt Q02318); test: P450 27A1 enzyme incubation: rate of 27-diol formation (GLC-MS); format: biochemical; conditions: for Synthesis rate of the 27-diol metabolite: 25 nmol substrate, 37° C.; for Substrate for the enzyme CYP 27A1: human enzyme expressed in E. Coli; for Total 27-diol metabolite: total over 10 min
# T2 construct: made in house; host or cells: E. coli
# T2 sequence (Q02318 34-531): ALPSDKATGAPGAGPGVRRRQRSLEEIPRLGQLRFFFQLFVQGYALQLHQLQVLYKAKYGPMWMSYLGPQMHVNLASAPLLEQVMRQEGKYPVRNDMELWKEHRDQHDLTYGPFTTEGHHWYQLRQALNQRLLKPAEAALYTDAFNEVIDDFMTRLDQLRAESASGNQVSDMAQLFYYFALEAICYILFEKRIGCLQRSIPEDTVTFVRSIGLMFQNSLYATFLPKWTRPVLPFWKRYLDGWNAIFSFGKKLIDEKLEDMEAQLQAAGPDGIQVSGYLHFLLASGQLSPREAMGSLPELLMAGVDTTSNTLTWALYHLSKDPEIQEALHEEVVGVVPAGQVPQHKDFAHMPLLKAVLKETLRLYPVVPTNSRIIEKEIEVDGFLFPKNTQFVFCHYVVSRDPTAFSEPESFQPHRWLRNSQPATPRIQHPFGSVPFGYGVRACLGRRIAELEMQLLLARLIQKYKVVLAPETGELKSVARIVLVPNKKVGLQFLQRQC
# Source text: (§1) Recombinant human P450 27A1, recombinant bovine adrenodoxin (Adx), and recombinant bovine adrenodoxin reductase (Adr) were expressed and purified as described previously (7). P450 27A1 with a heme content of 17.6 nmol/mg protein and showing a single band upon silver-stained SDS-polyacrylamide gel electrophoresis, and Adr and Adx with the spectral purity indexes of 7.5 (A278/A450) and 0.95 (A414/A276), respectively, were used for enzymatic assays. Adr and Adx are considered to be pure with the spectral purity indexes beginning from 7.5 for Adr and 0.86 for Adx (8).
# (§2) P450 27A1 activities using cholesterol, desmosterol, zymosterol, lanosterol, or […] as the substrate were assayed in 40 mM phosphate buffer, pH 7.4. Stock solutions (10 mM) of cholesterol, desmosterol, zymosterol, and […] were prepared using 45% aqueous solution of 2-hydroxypropyl-β-cyclodextrin. Reaction mixtures (1 ml) contained 0.065 nmol of P450 27A1, 0.33 nmol of Adr, 1.3 nmol of Adx, and 25 nmol of substrate, Lanosterol was dissolved in methyl-β-cyclodextrin (Sigma, St. Louis, Mo.) and the reaction mixture contained 25 nmol substrate, 0.3 nmol enzyme, 1.5 nmol Adr and 6.5 nmol Adx. Enzymatic assays, initiated by addition of 1 μmol of NADPH, were carried out at 37° C. for different time intervals, and were terminated by adding 1 ml of either CH2Cl2 or CH2Cl2 that contained coprostanol. After extraction, the steroid were taken to dryness. In some studies deuterated 27-hydroxycholesterol (9) was used as an internal standard.
# (§3) For zymosterol and desmosterol, the rate of diol formation was determined at 2.5, 5.0, and 10 min by removing aliquots and adding deuterated 27-hydroxycholesterol as an internal standard. The m/z 454 area was then compared with the m/z=462 area at each time interval. Because authentic standards are not available for constructing standard curves, it was assumed that the area/mass ratios for deuterated 27-hydroxycholesterol, zymosterol and desmosterol were equal. A second approach was to quantify the rate of disappearance of substrate using coprostanol added at the end of the incubation period. In all studies a parallel incubation with the omission of adrenodoxin reductase served as a control.
# (§4) The trimethylsilyl ethers were prepared using MSTFA, (Pierce, Rockford, Ill.). Methyl esters were prepared using freshly distilled diazomethane. GLC-MS analyses were done on a Shimidzu GLC 17A instrument attached to a Model 5000 mass detector. Samples were injected in the split-mode onto a ZB-1701, 30 m×0.25 mm×0.15 μm capillary column (Phenomenex, Torrance, Calif.) and temperature programming at 1° C. beginning at 240° C.
# LXRα = biological target: T3, LXRα (Homo sapiens, UniProt Q13133); conditions: cited from earlier work
# T3 sequence (Q13133 1-447): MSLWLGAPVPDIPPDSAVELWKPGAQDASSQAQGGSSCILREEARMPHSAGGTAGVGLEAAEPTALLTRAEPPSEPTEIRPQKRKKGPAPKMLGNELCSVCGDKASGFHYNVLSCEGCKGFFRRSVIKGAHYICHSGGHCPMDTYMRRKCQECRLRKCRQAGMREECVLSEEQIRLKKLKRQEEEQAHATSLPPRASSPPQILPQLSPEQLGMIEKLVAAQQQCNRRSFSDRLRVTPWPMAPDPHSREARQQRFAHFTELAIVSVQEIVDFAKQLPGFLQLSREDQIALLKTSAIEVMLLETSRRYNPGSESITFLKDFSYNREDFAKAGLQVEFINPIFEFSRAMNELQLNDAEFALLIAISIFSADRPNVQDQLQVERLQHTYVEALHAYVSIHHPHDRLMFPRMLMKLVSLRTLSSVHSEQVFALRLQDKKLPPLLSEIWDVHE
# LXRβ = biological target: T4, LXRβ (Homo sapiens, UniProt P55055); conditions: cited from earlier work
# T4 sequence (P55055 1-460): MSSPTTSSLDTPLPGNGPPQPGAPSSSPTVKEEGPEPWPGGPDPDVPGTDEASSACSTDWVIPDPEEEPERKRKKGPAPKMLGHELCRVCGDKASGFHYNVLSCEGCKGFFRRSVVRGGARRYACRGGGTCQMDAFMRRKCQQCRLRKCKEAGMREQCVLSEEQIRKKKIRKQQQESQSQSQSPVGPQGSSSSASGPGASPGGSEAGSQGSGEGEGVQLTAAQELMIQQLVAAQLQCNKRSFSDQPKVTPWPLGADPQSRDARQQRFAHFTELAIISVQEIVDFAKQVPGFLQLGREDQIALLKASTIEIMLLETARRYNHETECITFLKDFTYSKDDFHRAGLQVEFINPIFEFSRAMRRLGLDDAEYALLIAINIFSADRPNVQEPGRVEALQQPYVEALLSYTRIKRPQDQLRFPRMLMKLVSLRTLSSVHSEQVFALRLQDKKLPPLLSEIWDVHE
# [2] = biological target: T2, Recombinant human P450 27A1; test: P450 27A1 enzyme incubation: disappearance of substrate, coprostanol internal standard; format: biochemical
# Source text: as §1, §2, §3, §4
# TABLE 3 indicates the percent of zymosterol, desmosterol, and lanosterol that was metabolized compared with that of cholesterol and 7-dehydrocholesterol using coprostanol (m/z=370) as an internal standard and (−) adrenodoxin reductase as a control.
# [3] = system: human retinal pigment epithelial cells (ARPE19); format: cell-based
# Source text: We undertook to determine the effect of 27-hydroxylation of 7-ketocholesterol on the cytotoxic effect of 7-ketocholesterol. To test the general hypothesis that 27-hydroxylation of steroids markedly alters their biologic activity, the 27-hydroxy derivative of 7-ketocholesterol was synthesized from 27-hydrocholesterol using modifications of a previously published method (11). Its biologic effects on human retinal pigment epithelial cells (ARPE19) was compared to that of 7-ketocholesterol.
# By contrast, retinal pigment epithelial cells maintained in the presence of 27-hydroxy-7-ketocholesterol had only a 10% reduction in viability compared to control.
# [4] = Adrenodoxin reductase (−) control incubation, 20 min
# [5] = Adrenodoxin reductase +, 20 min
# [6] = disappearance of substrate at 20 min versus incubation without adrenodoxin reductase
Compound,Stimulation of ubiquitination of reductase (HMG CoA reductase),Synthesis rate of the 27-diol metabolite ([1]; 0-2.5 min) [ng/min],Synthesis rate of the 27-diol metabolite ([1]; 2.5-5.0 min) [ng/min],Synthesis rate of the 27-diol metabolite ([1]; 5.0-10 min) [ng/min],Total 27-diol metabolite [1] [ng/10 min],also measured
C[C@H](CCCC(C)(C)O)[C@H]1CC[C@H]2[C@@H]3C(=O)C=C4C[C@@H](O)CC[C@]4(C)[C@H]3CC[C@]12C [7-keto-25-hydroxycholesterol],stimulated ubiquitination of reductase,,,,,
CC(C)=CCC[C@@H](C)[C@H]1CC[C@H]2C3=C(CC[C@]12C)[C@@]1(C)CC[C@H](O)C[C@@H]1CC3 [Zymosterol],,9,14,10,97,Substrate for the enzyme CYP 27A1 [1]: substrates for the enzyme
CC(CO)CCC[C@@H](C)[C@H]1CC[C@H]2[C@@H]3CC=C4C[C@@H](O)CC[C@]4(C)[C@H]3CC[C@]12C (some centres unmarked) [27-hydroxycholesterol],stimulated ubiquitination of reductase,,,,,Expression of the nuclear receptor LXRα (LXRα): upregulates; Expression of the nuclear receptor LXRβ (LXRβ): upregulates
CC(=CCCC(C)C1CCC2(C)C3=C(CCC12C)C1(C)CCC(O)C(C)(C)C1CC3)CO (centres unmarked) [27-hydroxylanosterol],strongly stimulated reductase ubiquitination,,,,,Concentration giving approximately equivalent levels of reductase ubiquitination as 25 μM lanosterol (HMG CoA reductase): 2.5 µM
CC(C)CCC[C@@H](C)[C@H]1CC[C@H]2C3=CC=C4C[C@@H](O)CC[C@]4(C)[C@H]3CC[C@]12C [7-Dehydrocholesterol],,24,54,11,107,"Sterol/int std ratio [2, 4]: 0.95; Sterol/int std ratio [2, 5]: 0.65; Percent metabolized [2, 6]: 32%"
CC(C)=CCC[C@@H](C)[C@H]1CC[C@@]2(C)C3=C(CC[C@]12C)[C@@]1(C)CC[C@H](O)C(C)(C)[C@@H]1CC3 [Lanosterol],potently stimulate ubiquitination of reductase,,,,,Substrate for the enzyme CYP 27A1 [1]: substrates for the enzyme
CC(C)=CCC[C@@H](C)[C@H]1CC[C@H]2[C@@H]3CC=C4C[C@@H](O)CC[C@]4(C)[C@H]3CC[C@]12C [Desmosterol],,3,8,9,85,"Substrate for the enzyme CYP 27A1 [1]: substrates for the enzyme; Sterol/int std ratio [2, 4]: 0.12; Sterol/int std ratio [2, 5]: 0.09; Percent metabolized [2, 6]: 25%"
CC(CO)CCC[C@@H](C)[C@H]1CC[C@H]2C3=CC=C4C[C@@H](O)CC[C@]4(C)[C@H]3CC[C@]12C (some centres unmarked) [27-hydroxy-7-dehydrocholesterol],,,,,,Expression of the nuclear receptor LXRα (LXRα): specifically upregulate
C[C@H](CCCC(C)(C)O)[C@H]1CC[C@H]2[C@@H]3CC=C4C[C@@H](O)CC[C@]4(C)[C@H]3CC[C@]12C [25-hydroxycholesterol],stimulated ubiquitination of reductase,,,,,
CC(C)CCC[C@@H](C)[C@H]1CC[C@H]2[C@@H]3CC=C4C[C@@H](O)CC[C@]4(C)[C@H]3CC[C@]12C [Cholesterol],not,80,75,53,534,"Percent metabolized ([2]; human, 20 min, 25 µM, pH 7.4): 22%"
CC(C)CCC[C@@H](C)[C@H]1CC[C@H]2[C@@H]3C(=O)C=C4C[C@@H](O)CC[C@]4(C)[C@H]3CC[C@]12C [7-ketocholesterol],,,,,,Viability of retinal pigment epithelial cells ([3]; 25 μmolar): 68%; Viability of retinal pigment epithelial cells ([3]; 50 μmolar): 20%

# Source: patent publication US8741812B2, “Class of sterol ligands and their uses in regulation of cholesterol and gene expression” (New York University, priority 2004, dated 2014)
